From the Kinase Knowledgebase extract (Sharma et al. 2016) come the findings set out here.

The structures appear in SMILES notation.

This assay concerns the target PIK3CG (human) (UniProt P48736). The assay can be described thus: Inhibition of PIK3CG Kinase Activity.

PIK3CG (human), sequence (P48736 whole entry, looked up): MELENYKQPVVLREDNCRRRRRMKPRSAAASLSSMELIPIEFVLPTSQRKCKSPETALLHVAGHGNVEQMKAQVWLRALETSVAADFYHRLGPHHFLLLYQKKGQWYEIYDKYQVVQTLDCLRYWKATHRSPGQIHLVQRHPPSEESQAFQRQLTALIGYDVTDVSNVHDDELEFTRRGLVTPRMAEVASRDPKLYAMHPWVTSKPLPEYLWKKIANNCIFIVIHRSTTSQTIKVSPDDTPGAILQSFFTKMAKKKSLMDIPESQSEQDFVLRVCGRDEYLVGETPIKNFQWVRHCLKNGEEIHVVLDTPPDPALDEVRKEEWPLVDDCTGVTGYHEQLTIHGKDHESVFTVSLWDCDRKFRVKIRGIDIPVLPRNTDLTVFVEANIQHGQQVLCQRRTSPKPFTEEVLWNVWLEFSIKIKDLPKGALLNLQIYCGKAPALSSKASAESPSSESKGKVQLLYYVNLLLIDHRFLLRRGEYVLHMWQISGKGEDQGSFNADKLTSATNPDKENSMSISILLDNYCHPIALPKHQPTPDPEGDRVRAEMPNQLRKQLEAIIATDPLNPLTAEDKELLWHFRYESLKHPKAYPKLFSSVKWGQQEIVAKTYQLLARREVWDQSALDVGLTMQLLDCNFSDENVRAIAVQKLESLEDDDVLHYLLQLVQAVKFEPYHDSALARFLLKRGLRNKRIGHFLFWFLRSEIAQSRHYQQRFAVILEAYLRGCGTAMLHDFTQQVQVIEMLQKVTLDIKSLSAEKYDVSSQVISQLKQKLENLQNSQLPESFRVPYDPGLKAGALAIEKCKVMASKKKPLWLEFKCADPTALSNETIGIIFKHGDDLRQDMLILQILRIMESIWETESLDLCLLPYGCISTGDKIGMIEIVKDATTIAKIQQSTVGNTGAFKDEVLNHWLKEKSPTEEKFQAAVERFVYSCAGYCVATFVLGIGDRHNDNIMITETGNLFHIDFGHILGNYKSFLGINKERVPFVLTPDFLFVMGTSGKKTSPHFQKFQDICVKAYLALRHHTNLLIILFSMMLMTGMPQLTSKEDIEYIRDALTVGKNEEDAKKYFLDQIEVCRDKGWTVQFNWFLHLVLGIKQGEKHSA

The IC50 is the midpoint of a concentration-inhibition curve. A lower IC50 goes with inhibition by little substance. Molecule `CCN(C(=O)c1ccc(-n2nc(C3CC3)c3c2-c2sc(NC(C)=O)nc2CC3)c(Cl)c1)[C@H]1CC[C@@H](N2CCCC2)CC1` had an IC50 of under 600 nM.
The figure for `CC(=O)Nc1nc2c(s1)-c1c(c(C3CC3)nn1-c1ccc(C(=O)N3CCC(N4CCCC4)CC3)c(Cl)c1)CC2` is under 600 nM; for `CC(=O)Nc1nc2c(s1)-c1c(c(C3(C)CC3)nn1-c1ccc(C(=O)NC3CCN(C(C)C)CC3)cc1Cl)CC2` it is under 600 nM; for `CCCN1CCC(C(=O)N2CCC(n3nc(C4CC4)c4c3-c3sc(NC(C)=O)nc3CC4)CC2)CC1` it is under 600 nM.
In turn, `CC(=O)Nc1nc2c(s1)-c1c(c(C3CC3)nn1-c1ccc(C(=O)N[C@H]3CN4CCC3CC4)c(Cl)c1)CC2` returned a 50% inhibitory concentration (IC50) of under 600 nM.
With `CC(=O)Nc1nc2c(s1)-c1c(c(C3CC3)nn1-c1ccc(CC(=O)NC3CCN(C4CCCC4)CC3)cc1Cl)CC2`, the concentration for half-maximal inhibition (IC50) is under 600 nM.
`CC(=O)Nc1nc2c(s1)-c1c(c(C3CC3)nn1-c1ccc(C(=O)N[C@H]3CC[C@@H](N4CCOCC4)CC3)c(Cl)c1)CC2` returned an IC50 of under 600 nM.
In the case of `CC(=O)Nc1nc2c(s1)-c1c(c(C3CCC3)nn1-c1ccc(C(=O)NC3CCN(C)CC3)cc1Cl)CC2` it was under 600 nM; in that of `CC(=O)Nc1nc2c(s1)-c1c(c(C3CC3)nn1-c1ccccc1Cl)CC2`, under 600 nM; in that of `CC(=O)Nc1nc2c(s1)-c1c(c(C3CC3)nn1-c1ccc(C(=O)NC[C@@H]3CCCN3CC3CCCC3)c(Cl)c1)CC2`, under 600 nM.
`CC(=O)Nc1nc2c(s1)-c1c(c(C3CC3)nn1-c1ccc(C(=O)N(C)C3CCN(CC4CCCC4)CC3)c(Cl)c1)CC2` had an IC50 of under 600 nM.
For the molecule `CCN(C(=O)c1ccc(-n2nc(C3CC3)c3c2-c2sc(NC(C)=O)nc2CC3)cc1C)[C@H]1CC[C@@H](N2CCCC2)CC1`, the IC50 was under 600 nM.
As for `CNC(=O)Cc1ccc(-n2nc(C3CC3)c3c2-c2sc(NC(C)=O)nc2CC3)c(Cl)c1`, the IC50 is under 600 nM.
For `CC(=O)Nc1nc2c(s1)-c1c(c(C3CC3)nn1-c1ccc(C(=O)N(C)[C@H]3CC[C@@H](N(C)CC4CCCC4)CC3)c(Cl)c1)CC2`, the IC50 was under 600 nM.
The molecule `CC(=O)Nc1nc2c(s1)-c1c(c(C3CC3)nn1-c1ccc(C(=O)N[C@@H]3CCN(C4CCCC4)C3)c(Cl)c1)CC2` yielded an IC50 of under 600 nM.
As to `CC(=O)Nc1nc2c(s1)-c1c(c(C3CC3)nn1-c1ccc(C(=O)N(C)C3CCN(C4CCCC4)CC3)c(C)c1)CC2`, the IC50 was under 600 nM.
In the case of `CC(=O)Nc1nc2c(s1)-c1c(c(C3CC3)nn1-c1ccc(C(=O)N[C@@H]3CCN(CC4CCCC4)C3)c(Cl)c1)CC2` it was under 600 nM; in that of `CC(=O)Nc1nc2c(s1)-c1c(c(C3CC3)nn1-c1ccc(C(=O)N(C)[C@H]3CC[C@@H](N(C)CC4CC4)CC3)cc1C)CC2`, under 600 nM; in that of `CC(=O)Nc1nc2c(s1)-c1c(c(C3CCC3)nn1-c1ccc(C(=O)NC3CCN(C4CCOCC4)CC3)cc1Cl)CC2`, under 600 nM.
Turning to `CC(=O)Nc1nc2c(s1)-c1c(c(C3CC3)nn1[C@H]1CC[C@H](C(=O)NC3CCN(C4CCCC4)CC3)CC1)CC2`, the IC50 is under 600 nM.
The molecule `CC(=O)Nc1nc2c(s1)-c1c(c(C3CCC3)nn1-c1ccc(C(=O)N(C)[C@H]3CC[C@@H](N4CCCC4)CC3)cc1Cl)CC2` yielded an IC50 of under 600 nM.
On to `CC(=O)Nc1nc2c(s1)-c1c(c(C3CC3)nn1-c1ccc(C(=O)NC3CCN(C4CCCCC4)CC3)cc1C)CC2`, for which the half-maximal inhibitory concentration (IC50) is under 600 nM.
Consider `CC(=O)Nc1nc2c(s1)-c1c(c(C3CCCC3)nn1-c1ccc(C(=O)N[C@H]3CC[C@@H](N4CCCC4)CC3)cc1Cl)CC2`, for which the IC50 is under 600 nM.
With `CC(=O)Nc1nc2c(s1)-c1c(c(C3CC3)nn1-c1ccc(C(=O)N[C@@H]3CCN(CC4CCCC4)C3)c(F)c1)CC2`, the concentration for half-maximal inhibition (IC50) is under 600 nM.
Molecule `CC(=O)Nc1nc2c(s1)-c1c(c(C3CC3)nn1-c1ccc(C(=O)NC3CCN(C4CCCCC4)CC3)c(F)c1)CC2` displayed an IC50 of under 600 nM.
In turn, `CC(=O)Nc1nc2c(s1)-c1c(c(C3(C)CC3)nn1-c1ccc(C(=O)NC3CCN(C)CC3)cc1Cl)CC2` registered an IC50 of under 600 nM.
As for `CC(=O)Nc1nc2c(s1)-c1c(c(C3CC3)nn1-c1ccc(C(=O)NC[C@@H]3CCCN3)c(Cl)c1)CC2`, the IC50 is under 600 nM.
`CC(=O)Nc1nc2c(s1)-c1c(c(C3CCC3)nn1-c1ccc(C(=O)N[C@H]3CC[C@@H](N4CCCCC4)CC3)cc1Cl)CC2` yielded an IC50 of under 600 nM.
`CC(=O)Nc1nc2c(s1)-c1c(c(C3CC3)nn1-c1ccc(C(=O)NC3CCN(C4CCOCC4)CC3)cc1C)CC2` came in with an IC50 of under 600 nM.
For `CC(=O)Nc1nc2c(s1)-c1c(c(C3CC3)nn1-c1ccc(C(=O)N[C@H]3CC[C@@H](N4CCOCC4)CC3)cc1Cl)CC2`, the IC50 was under 600 nM.
On to `CC(=O)Nc1nc2c(s1)-c1c(c(C3CCCC3)nn1-c1ccc(C(=O)NC3CCN(CC4CCCC4)CC3)cc1Cl)CC2`, for which the IC50 is under 600 nM.
The figure for `CCCN1CCC(NC(=O)c2ccc(-n3nc(C4(C)CC4)c4c3-c3sc(NC(C)=O)nc3CC4)c(Cl)c2)CC1` is under 600 nM; for `CC(=O)Nc1nc2c(s1)-c1c(c(C3CC3)nn1-c1ccc(N(C)C(=O)C3CCN(C4CCCC4)CC3)cc1Cl)CC2` it is under 600 nM.
Regarding `CCCN1CCC(C(=O)N(C)c2ccc(-n3nc(C4CC4)c4c3-c3sc(NC(C)=O)nc3CC4)c(Cl)c2)CC1`, the half-inhibitory concentration (IC50) was under 600 nM.
As for `CC(=O)Nc1nc2c(s1)-c1c(c(C3CC3)nn1-c1ccc(C(=O)N[C@H]3CC[C@@H](N(C)C)CC3)cc1Cl)CC2`, the concentration for half-maximal inhibition (IC50) is under 600 nM.
With `CC(=O)Nc1nc2c(s1)-c1c(c(C3CC3)nn1-c1ccc(C(=O)N[C@@H]3CCN(C4CCCC4)C3)c(C)c1)CC2`, the IC50 is under 600 nM.
As for `CCCN1CCC(NC(=O)c2ccc(-n3nc(C4CC4)c4c3-c3sc(NC(C)=O)nc3CC4)cc2Cl)CC1`, the IC50 was under 600 nM.
On to `CC(=O)Nc1nc2c(s1)-c1c(c(C3CC3)nn1-c1ccc(C(=O)N3CC[C@H](CN4CCCC4)C3)c(Cl)c1)CC2`, for which the concentration for half-maximal inhibition (IC50) is under 600 nM.
In the case of `CC(=O)Nc1nc2c(s1)-c1c(c(C3CC3)nn1-c1ccc(C(=O)N[C@H]3CC[C@@H](N4CCCCC4)CC3)cc1F)CC2` it was under 600 nM; in that of `CC(=O)Nc1nc2c(s1)-c1c(c(C3CC3)nn1-c1ccc(C(=O)N[C@H]3CCN(C4CCCC4)C3)c(Cl)c1)CC2`, under 600 nM; in that of `CC(=O)Nc1nc2c(s1)-c1c(c(C3CC3)nn1-c1ccc(C(=O)NC3CCN(C4CCCCC4)CC3)cc1F)CC2`, under 600 nM.
For the molecule `CC(=O)Nc1nc2c(s1)-c1c(c(C3CC3)nn1-c1ccc(C(=O)N(C)[C@@H]3CCN(CC4CCCC4)C3)c(C)c1)CC2`, the concentration for half-maximal inhibition (IC50) was under 600 nM.
As for `CC(=O)Nc1nc2c(s1)-c1c(c(C3CC3)nn1-c1ccc(C(=O)N(C)C[C@@H]3CCN(C4CCCC4)C3)c(Cl)c1)CC2`, the half-inhibitory concentration (IC50) is under 600 nM.
`CC(=O)Nc1nc2c(s1)-c1c(c(C3CC3)nn1-c1ccc(C(=O)NC3CCN(C4CCCC4)CC3)c(C)c1)CC2`: the IC50 was under 600 nM.
The figure for `CC(=O)Nc1nc2c(s1)-c1c(c(C3(C)CC3)nn1-c1ccc(C(=O)NC3CCN(C4CCOCC4)CC3)cc1Cl)CC2` is under 600 nM; for `CC(=O)Nc1nc2c(s1)-c1c(c(C3CC3)nn1C1CCC(C(N)=O)CC1)CC2` (stereo not drawn) it is under 600 nM.
`CC(=O)Nc1nc2c(s1)-c1c(c(C3CC3)nn1-c1ccc(C(=O)N[C@H]3CC[C@@H](N(C)CC4CCCC4)CC3)cc1C)CC2` returned an IC50 of under 600 nM.
In the case of `CC(=O)Nc1nc2c(s1)-c1c(c(C3CC3)nn1-c1ccc(C(=O)N(C)[C@H]3CC[C@@H](N4CCCC4)CC3)cc1F)CC2`, the IC50 is under 600 nM.
In the case of `CCCN1CC[C@@H](NC(=O)c2ccc(-n3nc(C4CC4)c4c3-c3sc(NC(C)=O)nc3CC4)c(Cl)c2)C1` it was under 600 nM; in that of `CC(=O)Nc1nc2c(s1)-c1c(c(C3CC3)nn1-c1ccc(C(=O)N(C)C3CCC(N4CCCCC4)CC3)c(F)c1)CC2` (stereo not drawn), under 600 nM; in that of `CNC(=O)c1ccc(-n2nc(C3CCCC3)c3c2-c2sc(NC(C)=O)nc2CC3)c(Cl)c1`, under 600 nM.
The molecule `CC(=O)Nc1nc2c(s1)-c1c(c(C3CC3)nn1-c1ccc(C(=O)N(C)[C@@H]3CCN(C4CCCC4)C3)cc1F)CC2` registered an IC50 of under 600 nM.
In turn, `CC(=O)Nc1nc2c(s1)-c1c(c(C3CC3)nn1-c1ccc(C(=O)N(C)[C@H]3CCN(C4CCCCC4)C3)cc1Cl)CC2` had an IC50 of under 600 nM.
With `CC(=O)Nc1nc2c(s1)-c1c(c(C3CC3)nn1-c1ccc(C(=O)N(C)[C@H]3CCN(C4CCCCC4)C3)c(C)c1)CC2`, the IC50 was under 600 nM.
In the case of `CC(=O)Nc1nc2c(s1)-c1c(c(C3CC3)nn1-c1ccc(C(=O)N(C)CC3CCN(CC4CCCC4)CC3)c(Cl)c1)CC2`, the IC50 is under 600 nM.
`CC(=O)Nc1nc2c(s1)-c1c(c(C3CC3)nn1-c1ccc(C(=O)N[C@@H]3CCN(C4CCCC4)C3)cc1C)CC2` registered an IC50 of under 600 nM.
The molecule `CC(=O)Nc1nc2c(s1)-c1c(c(C3CC3)nn1-c1ccc(C(=O)NC3CCN(C4CCCC4)CC3)c(Cl)c1)CC2` registered a concentration for half-maximal inhibition (IC50) of under 600 nM.
With `CC(=O)Nc1nc2c(s1)-c1c(c(C3CC3)nn1-c1ccc(C(=O)NC3CCN(CC4CCCC4)CC3)c(F)c1)CC2`, the concentration for half-maximal inhibition (IC50) was under 600 nM.
In the case of `CC(=O)Nc1nc2c(s1)-c1c(c(C3CC3)nn1-c1ccc(C(=O)NC3CCN(CC4CCCCC4)CC3)c(C)c1)CC2` it was under 600 nM; in that of `CC(=O)Nc1nc2c(s1)-c1c(c(C3CC3)nn1-c1ccc(CC(=O)NC3CCCCC3)cc1Cl)CC2`, under 600 nM.
`CCCN1CCC(C(=O)Nc2ccc(-n3nc(C4CC4)c4c3-c3sc(NC(C)=O)nc3CC4)c(Cl)c2)CC1` returned an IC50 of under 600 nM.
`CC(=O)Nc1nc2c(s1)-c1c(c(C3CC3)nn1-c1ccc(C(=O)N[C@@H]3CCN(CC4CCCC4)C3)cc1Cl)CC2` returned an IC50 of under 600 nM.
As to `CC(=O)Nc1nc2c(s1)-c1c(c(C3CC3)nn1-c1ccc(N)cc1Cl)CC2`, the IC50 is under 600 nM.
Turning to `CC(=O)Nc1nc2c(s1)-c1c(c(C3CC3)nn1-c1ccc(C(=O)N(C)[C@H]3CC[C@@H](N4CCCCC4)CC3)cc1Cl)CC2`, the IC50 is under 600 nM.
For `CC(=O)Nc1nc2c(s1)-c1c(c(C3CC3)nn1-c1ccc(C(=O)NC[C@@H]3CCNC3)c(Cl)c1)CC2`, the IC50 is under 600 nM.
Turning to `CC(=O)Nc1nc2c(s1)-c1c(c(C3CC3)nn1-c1ccc(C(=O)N(C)C3CCN(C4CCCC4)CC3)cc1Cl)CC2`, the IC50 was under 600 nM.
In the case of `CC(=O)Nc1nc2c(s1)-c1c(c(C3CC3)nn1-c1ccc(C(=O)N[C@H]3CC[C@@H](N4CCCC4)CC3)cc1F)CC2` it was under 600 nM; in that of `CCCCN1CCN(C(=O)N2CCC(n3nc(C4CC4)c4c3-c3sc(NC(C)=O)nc3CC4)CC2)CC1`, under 600 nM.
